Experimental data as given in patent EP0672658B1, “Antithrombotic agents” (priority 1994, dated 1995).
Structures can show the parent of a compound that is named as a salt.

The compounds below were run against Human Thrombin (Homo sapiens, UniProt P00734) (assay: biochemical). Settings: read-out: Kass Human Thrombin (converted).

Compound	Kd
Nc1cc(CNC(=O)[C@@H]2CCCN2C(=O)[C@@H](CC2CCCCC2)NCC(=O)O)ccn1 [Example 73, HO2CCH2-D-Cha-Pro-4-NHCH2-2-aminopyridine·HCl]	35.7 nM
Nc1ccc(CNC(=O)[C@@H]2CCCN2C(=O)[C@@H](CC2CCCCC2)NCC(=O)O)cc1 [Example 62, HO2CCH2-D-Cha-Pro-4-NHCH2C6H4NH2·HCl]	132 nM
N=C(N)c1ccc(CNC(=O)[C@@H]2CCCN2C(=O)[C@@H](CC2CCCCC2)NCC(=O)O)nn1 [Example 69, HO2CCH2-D-Cha-Pro-3-NHCH2-6-amidinopyridazine·HCl]	2.94 nM
CCS(=O)(=O)N[C@H](CC1CCCCC1)C(=O)N1CCC[C@H]1C(=O)NCc1ccc(C(=N)N)cc1 [Example 80, EtSO2-D-Cha-Pro-4-NHCH2C6H4C(NH)NH2·HCl]	0.588 nM
N=C(N)c1ccc(CNC(=O)[C@@H]2CCCN2C(=O)[C@@H](CC2CCCCC2)NCC(=O)O)nc1 [Example 66, HO2CCH2-D-Cha-Pro-2-NHCH2-5-amidinopyridine·HCl]	8.33 nM
Nc1cc(CCNC(=O)[C@@H]2CCCN2C(=O)[C@@H](CC2CCCCC2)NCC(=O)O)ccn1 [Example 76, HO2CCH2-D-Cha-Pro-4-NHCH2CH2-2-aminopyridine·HCl]	83.3 nM
N=C(N)C1CCC(CNC(=O)[C@@H]2CCCN2C(=O)[C@@H](CC2CCCCC2)NCC(=O)O)NC1 (stereo partly drawn) [Example 67, HO2CCH2-D-Cha-Pro-2-NHCH2-5-amidinopiperidine·HCl]	90.9 nM
CCS(=O)(=O)N[C@H](CC1CCCCC1)C(=O)N1CCC[C@H]1C(=O)NCc1ccc(N)nc1 [Example 84, EtSO2-D-Cha-Pro-5-NHCH2-2-aminopyridine·HCl]	345 nM

What follows are compounds tested against T1, Trypsin (Bos taurus, UniProt P00760) (assay: biochemical). Settings: read-out: Kass Trypsin (converted).
T1 sequence (P00760 24-246): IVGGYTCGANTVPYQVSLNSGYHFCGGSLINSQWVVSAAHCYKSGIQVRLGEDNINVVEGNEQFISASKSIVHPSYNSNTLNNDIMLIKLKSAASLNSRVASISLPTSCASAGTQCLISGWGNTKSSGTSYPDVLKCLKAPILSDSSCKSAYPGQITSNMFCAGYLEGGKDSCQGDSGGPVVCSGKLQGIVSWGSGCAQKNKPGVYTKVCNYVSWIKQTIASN
Parameters: species or system Bovine
Description: By substantially following the procedures described above for human thrombin, and using other human blood coagulation system serine proteases and proteases of the fibrinolytic system with the appropriate chromogenic substrates, identified below, selectivity of the compounds of the present invention with respect to the coagulation factor serine proteases and with respect to the fibrinolytic system serine proteases are evaluated as well as their substantial lack of interference with serine proteases of the fibrinolytic system. Thrombin inhibitors preferably should spare fibrinolysis induced by urokinase, tissue plasminogen activator (t-PA) and streptokinase. This would be important to the therapeutic use of such agents as an adjunct to streptokinase, t-PA or urokinase thrombolytic therapy and to the use of such agents as an endogenous fibrinolysis-sparing (with respect to t-PA and urokinase) antithrombotic agent. In addition to the lack of interference with the amidase activity of the fibrinolytic proteases, such fibrinolytic system sparing can be studied by the use of human plasma clots and their lysis by the respective fibrinolytic plasminogen activators.
Human factors X, Xa, IXa, XIa, and XIIa are purchased from Enzyme Research Laboratories, South Bend, Indiana; human urokinase from Leo Pharmaceuticals, Denmark; and recombinant activated Protein C (aPC) is prepared at Eli Lilly and Co. substantially according to U.S. Patent 4,981,952. Chromogenic substrates: N-Benzoyl-Ile-Glu-Gly-Arg-p-nitroanilide (for factor Xa); N-Cbz-D-Arg-Gly-Arg-p-nitroanilide (for factor IXa assay as the factor Xa substrate); Pyroglutamyl-Pro-Arg-p-nitroanilide (for Factor XIa and for aPC); H-D-Pro-Phe-Arg-p-nitroanilide (for factor XIIa); and Pyroglutamyl-Gly-Arg-p-nitroanilide (for urokinase); are purchased from KabiVitrum, Stockholm, Sweden, or from Midwest Biotech, Fishers, Indiana. Bovine trypsin is purchased from Worthington Biochemicals, Freehold, New Jersey, and human plasma kallikrein from Kabi Vitrum, Stockholm, Sweden. Chromogenic substrate H-D-Pro-Phe-Arg-p-nitroanilide for plasma kallikrein is purchased from Kabi Vitrum, Stockholm, Sweden. N-Benzoyl-Phe-Val-Arg-p-nitroanilide, the substrate for human thrombin and for trypsin, is synthesized according to procedures described above for the compounds of the present invention, using known methods of peptide coupling from commercially available reactants or purchased from Midwest Biotech, Fishers, Indiana.

Compound	Kd
N=C(N)c1ccc(CNC(=O)[C@@H]2CCCN2C(=O)[C@@H](CC2CCCCC2)NCC(=O)O)nn1 [Example 69, HO2CCH2-D-Cha-Pro-3-NHCH2-6-amidinopyridazine·HCl]	270 nM
CCS(=O)(=O)N[C@H](CC1CCCCC1)C(=O)N1CCC[C@H]1C(=O)NCc1ccc(C(=N)N)cc1 [Example 80, EtSO2-D-Cha-Pro-4-NHCH2C6H4C(NH)NH2·HCl]	11.1 nM
N=C(N)c1ccc(CNC(=O)[C@@H]2CCCN2C(=O)[C@@H](CC2CCCCC2)NCC(=O)O)nc1 [Example 66, HO2CCH2-D-Cha-Pro-2-NHCH2-5-amidinopyridine·HCl]	217 nM
Nc1cc(CCNC(=O)[C@@H]2CCCN2C(=O)[C@@H](CC2CCCCC2)NCC(=O)O)ccn1 [Example 76, HO2CCH2-D-Cha-Pro-4-NHCH2CH2-2-aminopyridine·HCl]	2780 nM
CCS(=O)(=O)N[C@H](CC1CCCCC1)C(=O)N1CCC[C@H]1C(=O)NCc1ccc(N)nc1 [Example 84, EtSO2-D-Cha-Pro-5-NHCH2-2-aminopyridine·HCl]	14300 nM

Each compound was assayed on human or animal plasma (assay: Anticoagulation determination in plasma: thrombin time (TT)). Settings: concentration doubling thrombin time.
Type: biochemical
Description: (§1) Dog plasma and rat plasma is obtained from conscious mixed-breed hounds (either sex, Hazelton-LRE, Kalamazoo, Michigan, U.S.A.) or from anesthetized male Sprague-Dawley rats (Harlan Sprague-Dawley, Inc., Indianapolis, Indiana, U.S.A.) by venipuncture into 3.8 percent citrate. Fibrinogen is prepared from in-date ACD human blood as the fraction I-2 according to previous procedures and specifications. Smith, Biochem. J., 185, 1-11 (1980); and Smith, et al., Biochemistry, 11, 2958-2967 (1972). Human fibrinogen is also purchased as 98 percent pure/plasmin free from American Diagnostica, Greenwich, Connecticut. Coagulation reagents ACTIN, Thromboplastin, and Human plasma are from Baxter Healthcare Corp., Dade Division, Miami, Florida. Bovine thrombin from Parke-Davis (Ann Detroit, Michigan) is used for coagulation assays in plasma.
(§2) Coagulation assay procedures are as previously described. Smith, et al., Thrombosis Research, 50, 163-174 (1988). A CoAScreener coagulation instrument (American LABor, Inc.) is used for all coagulation assay measurements. The prothrombin time (PT) is measured by adding 0.05 mL saline and 0.05 mL Thromboplastin-C reagent to 0.05 mL test plasma. The activated partial thromboplastin time (APTT) is measured by incubation of 0.05 mL test plasma with 0.05 mL Actin reagent for 120 seconds followed by 0.05 mL CaCl2 (0.02 M). The thrombin time (TT) is measured by adding 0.05 mL saline and 0.05 mL thrombin (10 NIH units/mL) to 0.05 mL test plasma. The compounds of Formula I are added to human or animal plasma over a wide range of concentrations to determine prolongation effects on the APTT, PT, and TT assays. Linear extrapolations are performed to estimate the concentrations required to double the clotting time for each assay.

Compound	Human Plasma Anticoagulation 2x Clotting time (ng/mL) TT
Nc1cc(CNC(=O)[C@@H]2CCCN2C(=O)[C@@H](CC2CCCCC2)NCC(=O)O)ccn1 [Example 73, HO2CCH2-D-Cha-Pro-4-NHCH2-2-aminopyridine·HCl]	21 ng/mL
Nc1ccc(CNC(=O)[C@@H]2CCCN2C(=O)[C@@H](CC2CCCCC2)NCC(=O)O)cc1 [Example 62, HO2CCH2-D-Cha-Pro-4-NHCH2C6H4NH2·HCl]	54 ng/mL
N=C(N)c1ccc(CNC(=O)[C@@H]2CCCN2C(=O)[C@@H](CC2CCCCC2)NCC(=O)O)nn1 [Example 69, HO2CCH2-D-Cha-Pro-3-NHCH2-6-amidinopyridazine·HCl]	5. ng/mL
CCS(=O)(=O)N[C@H](CC1CCCCC1)C(=O)N1CCC[C@H]1C(=O)NCc1ccc(C(=N)N)cc1 [Example 80, EtSO2-D-Cha-Pro-4-NHCH2C6H4C(NH)NH2·HCl]	4 ng/mL
N=C(N)c1ccc(CNC(=O)[C@@H]2CCCN2C(=O)[C@@H](CC2CCCCC2)NCC(=O)O)nc1 [Example 66, HO2CCH2-D-Cha-Pro-2-NHCH2-5-amidinopyridine·HCl]	7.9 ng/mL
Nc1cc(CCNC(=O)[C@@H]2CCCN2C(=O)[C@@H](CC2CCCCC2)NCC(=O)O)ccn1 [Example 76, HO2CCH2-D-Cha-Pro-4-NHCH2CH2-2-aminopyridine·HCl]	29 ng/mL
N=C(N)C1CCC(CNC(=O)[C@@H]2CCCN2C(=O)[C@@H](CC2CCCCC2)NCC(=O)O)NC1 (stereo partly drawn) [Example 67, HO2CCH2-D-Cha-Pro-2-NHCH2-5-amidinopiperidine·HCl]	34. ng/mL
CCS(=O)(=O)N[C@H](CC1CCCCC1)C(=O)N1CCC[C@H]1C(=O)NCc1ccc(N)nc1 [Example 84, EtSO2-D-Cha-Pro-5-NHCH2-2-aminopyridine·HCl]	110 ng/mL

Each compound was assayed on human or animal plasma (assay: Anticoagulation determination in plasma: activated partial thromboplastin time (APTT)). Settings: concentration doubling activated partial thromboplastin time.
Type: biochemical
Description: as §1, §2

Compound	Human Plasma Anticoagulation 2x Clotting time (ng/mL) APTT
Nc1cc(CNC(=O)[C@@H]2CCCN2C(=O)[C@@H](CC2CCCCC2)NCC(=O)O)ccn1 [Example 73, HO2CCH2-D-Cha-Pro-4-NHCH2-2-aminopyridine·HCl]	340 ng/mL
N=C(N)c1ccc(CNC(=O)[C@@H]2CCCN2C(=O)[C@@H](CC2CCCCC2)NCC(=O)O)nn1 [Example 69, HO2CCH2-D-Cha-Pro-3-NHCH2-6-amidinopyridazine·HCl]	110 ng/mL
CCS(=O)(=O)N[C@H](CC1CCCCC1)C(=O)N1CCC[C@H]1C(=O)NCc1ccc(C(=N)N)cc1 [Example 80, EtSO2-D-Cha-Pro-4-NHCH2C6H4C(NH)NH2·HCl]	40 ng/mL
N=C(N)c1ccc(CNC(=O)[C@@H]2CCCN2C(=O)[C@@H](CC2CCCCC2)NCC(=O)O)nc1 [Example 66, HO2CCH2-D-Cha-Pro-2-NHCH2-5-amidinopyridine·HCl]	180 ng/mL
Nc1cc(CCNC(=O)[C@@H]2CCCN2C(=O)[C@@H](CC2CCCCC2)NCC(=O)O)ccn1 [Example 76, HO2CCH2-D-Cha-Pro-4-NHCH2CH2-2-aminopyridine·HCl]	490 ng/mL
N=C(N)C1CCC(CNC(=O)[C@@H]2CCCN2C(=O)[C@@H](CC2CCCCC2)NCC(=O)O)NC1 (stereo partly drawn) [Example 67, HO2CCH2-D-Cha-Pro-2-NHCH2-5-amidinopiperidine·HCl]	1,800 ng/mL
CCS(=O)(=O)N[C@H](CC1CCCCC1)C(=O)N1CCC[C@H]1C(=O)NCc1ccc(N)nc1 [Example 84, EtSO2-D-Cha-Pro-5-NHCH2-2-aminopyridine·HCl]	1,500 ng/mL

The compounds below were run on human or animal plasma (assay: Anticoagulation determination in plasma: prothrombin time (PT)). Settings: concentration doubling prothrombin time.
Type: biochemical
Description: as §1, §2

Compound	Human Plasma Anticoagulation 2x Clotting time (ng/mL) PT
Nc1cc(CNC(=O)[C@@H]2CCCN2C(=O)[C@@H](CC2CCCCC2)NCC(=O)O)ccn1 [Example 73, HO2CCH2-D-Cha-Pro-4-NHCH2-2-aminopyridine·HCl]	330 ng/mL
N=C(N)c1ccc(CNC(=O)[C@@H]2CCCN2C(=O)[C@@H](CC2CCCCC2)NCC(=O)O)nn1 [Example 69, HO2CCH2-D-Cha-Pro-3-NHCH2-6-amidinopyridazine·HCl]	220 ng/mL
CCS(=O)(=O)N[C@H](CC1CCCCC1)C(=O)N1CCC[C@H]1C(=O)NCc1ccc(C(=N)N)cc1 [Example 80, EtSO2-D-Cha-Pro-4-NHCH2C6H4C(NH)NH2·HCl]	130 ng/mL
N=C(N)c1ccc(CNC(=O)[C@@H]2CCCN2C(=O)[C@@H](CC2CCCCC2)NCC(=O)O)nc1 [Example 66, HO2CCH2-D-Cha-Pro-2-NHCH2-5-amidinopyridine·HCl]	270 ng/mL
Nc1cc(CCNC(=O)[C@@H]2CCCN2C(=O)[C@@H](CC2CCCCC2)NCC(=O)O)ccn1 [Example 76, HO2CCH2-D-Cha-Pro-4-NHCH2CH2-2-aminopyridine·HCl]	560 ng/mL
N=C(N)C1CCC(CNC(=O)[C@@H]2CCCN2C(=O)[C@@H](CC2CCCCC2)NCC(=O)O)NC1 (stereo partly drawn) [Example 67, HO2CCH2-D-Cha-Pro-2-NHCH2-5-amidinopiperidine·HCl]	1,300 ng/mL
CCS(=O)(=O)N[C@H](CC1CCCCC1)C(=O)N1CCC[C@H]1C(=O)NCc1ccc(N)nc1 [Example 84, EtSO2-D-Cha-Pro-5-NHCH2-2-aminopyridine·HCl]	1,900 ng/mL
